What was measured:
[1] = In use comparison of musk lactone mixture A with commercial musks in unperfumed laundry detergent, expert panel; parameters: species or system human; conditions: for DAMP HED / DAMP STR: damp towel; for DAMP HED / DRY TWL 1 DAY HED / DRY TWL 7 DAYS HED / DRY TWL 15 DAYS HED / JAR HED: hedonic; for DAMP STR / DRY TWL 1 DAY STR / DRY TWL 7 DAYS STR / DRY TWL 15 DAYS STR / JAR STR: strength; for DRY TWL 1 DAY HED / DRY TWL 1 DAY STR: dry towel 1 day; for DRY TWL 7 DAYS HED / DRY TWL 7 DAYS STR: dry towel 7 days; for DRY TWL 15 DAYS HED / DRY TWL 15 DAYS STR: dry towel 15 days; for JAR STR: jar (point of purchase)
Method: Olfactive evaluations in use were performed by an expert panel. The range of materials evaluated was comprehensive, including musk products commercially available: Nitromusk, Polycyclic and Macrocyclic categories (Ambrettolide, Dihydro Ambrettolide, Scentolide, Muscone, Muscenone, Velvione, Musk Ambrette, Edenolide, Ethylene Brassylate, Galaxolide, Tonalide, Habanolide, Globanone, Macrolide, Oxalide T and others).
Evaluation samples were prepared using unperfumed laundry detergent (formulation example in Example 4, Table 10) at two different dosages: 10% Solution @ 0.8% (yielding 0.08% musk lactone mixture A) or 1.5% (yielding 0.15% musk lactone mixture A) driven by relative product performance in formulas and practical laboratory practices to execute the comparisons. The concentration of musk lactone mixture A in each evaluation was at the same concentration as the commercial musk.
The evaluations were performed in use stages: Jar (POP—Point of purchase), damp towel, Dry towel (1 day) and Storage Dry towel (7 days and 15 days). A five points scale was utilized, rating both strength and hedonic character: • Strength (STR) is rated as the overall scent power coming up from the substrate, due to physicochemical properties and commonly described as a combination of diffusion, bloom, body and or volume perceptions.

[2] = Appearance of musk in laundry detergent base; type: physicochemical
Method: Furthermore, musk lactone mixture A and other musks were also evaluated at two different loadings in laundry detergent base, as shown in Tables 38 and 39.

Odor strength on blotter = experiment: Odor strength on blotter; parameters: species or system human
Description: The results are presented below in Table 23a and Table 23b:

[3] = Fiber substantivity: odor strength on fabric treated with softener, 14 member-panel; parameters: species or system human; conditions: 70% in isopropyl myristate dosed 0.25% w/w in softener; line dried 20 hours; 9 (very good) to 0 (very poor)
Method: Additionally, substantivity is evaluated olfactively by a panel after treating samples of substrate with a perfumed product, such as a fabric softener for cotton fabric or a shampoo for hair, containing the lactones described herein or other musk fragrances for comparison, according to standard procedures described below. Thus, the evaluation is essentially a relative odor intensity measurement. It is known that the perceived odor intensity of mixtures of perfume ingredients when evaluated as such is generally less than the sum of the perceived odors of the components. Thus, the perceived odor intensity of a 1:1 mixture of 2 of the components of the lactones described herein would be expected to be lower than the sum of the intensities of the separate components, i.e. in such mixtures odor suppression is generally found. On the contrary, the perceived odor intensity on substrate treated with the lactones described herein is at least equal to, but in most cases greater than the perceived intensity of substrate treated with equal amounts of the separate components.
Comparison of the fiber substantivity of single polycyclic musks and macrocyclic musks with musk mixtures is described herein. 70% Solutions in isopropyl myristate of the musks and musk mixtures to be tested are dosed at 0.25% w/w in a single Arquad fabric softener (GT 117B). The test is carried out by rinsing “6″×6” (weight: 16 g) cotton terry towel pieces at ambient temperature in a tergotometer according to the procedure below: • 3 g of fabric softener containing the test musk is added to 1 liter of water and agitated for one minute to disperse. The fabric piece is added and washed for 10 minutes with constant agitation at 100 rpm. On completion of the wash cycle, the pieces are hand wringed and line dried for 20 hours. • The cloths are assessed olfactively by a 14 member-panel. A 10-point scale is used running from 9 (very good) to 0 (very poor).

[4] = 0.04% Musk in laundry detergent base
[5] = 0.08% Musk in laundry detergent base

Compound | Appearance [2, 4] | Appearance [2, 5] | DAMP HED ([1]; 10% IPM @0.8%) | DAMP STR ([1]; 10% IPM @0.8%) | DRY TWL 1 DAY HED ([1]; 10% IPM @0.8%) | DRY TWL 1 DAY STR ([1]; 10% IPM @0.8%) | DRY TWL 7 DAYS HED ([1]; 10% IPM @0.8%) | DRY TWL 7 DAYS STR ([1]; 10% IPM @0.8%) | DRY TWL 15 DAYS HED ([1]; 10% IPM @0.8%) | DRY TWL 15 DAYS STR ([1]; 10% IPM @0.8%) | JAR STR ([1]; 10% IPM @0.8%) | JAR HED ([1]; 10% IPM @0.8%) | further results
O=C1CCCCCCCCCCCC(=O)OCCO1 [Ethylene Brassylate, ethylene brassilate] | Very cloudy | Phase separation |  |  |  |  |  |  |  |  |  |  | DAMP HED ([1]; 10% IPM @1.5%): −− /−− ((−−) Significantly inferior); DAMP STR ([1]; 10% IPM @1.5%): −− /−− ((−−) Significantly inferior); DRY TWL 1 DAY HED ([1]; 10% IPM @1.5%): −−/−− ((−−) Significantly inferior); DRY TWL 1 DAY STR ([1]; 10% IPM @1.5%): −−/−− ((−−) Significantly inferior); DRY TWL 7 DAYS HED ([1]; 10% IPM @1.5%): −−/−− ((−−) Significantly inferior); DRY TWL 7 DAYS STR ([1]; 10% IPM @1.5%): −−/−− ((−−) Significantly inferior); DRY TWL 15 DAYS HED ([1]; 10% IPM @1.5%): −−/−− ((−−) Significantly inferior); DRY TWL 15 DAYS STR ([1]; 10% IPM @1.5%): −−/−− ((−−) Significantly inferior); JAR STR ([1]; 10% IPM @1.5%): −−/−− ((−−) Significantly inferior); JAR HED ([1]; 10% IPM @1.5%): −−/−− ((−−) Significantly inferior)
O=C1CCCCCCCCCCCCCCCO1 [Hexadecanolide] |  |  |  |  |  |  |  |  |  |  |  |  | ODOR STRENGTH ON BLOTTER, Rating (10-point scale) (Odor strength on blotter): 5.8; ODOR STRENGTH ON FABRIC TREATED WITH SOFTENER, Rating (10-point scale) [3]: 4.8
CC1CC=CCCCCCCCCCC(=O)C1 (centres unmarked) [MUSCENONE, muscenone] |  |  | ++ | + ((+) directionally superior) | ++/++ | ++/++ | ++/++ | ++/++ | ++/++ | ++/++ | + ((+) directionally superior) | ++ | 
C[C@@H]1CCCCCCCCCCCCC(=O)C1 [MUSCONE, Muscone] |  |  | + ((+) directionally superior) | ++ | ++ | + ((+) directionally superior) | ++ | + ((+) directionally superior) | ++ | + ((+) directionally superior) | ++/++ | ++/++ | 
O=C1CCCCCCCCOCCCCCCO1 [OXALIDE T, Oxalide T] |  |  | 0/0 (comparable) | 0/0 ((0) comparable) | 0/0 (comparable) | 0/0 ((0) comparable) | 0/0 (comparable) | 0/0 ((0) comparable) | 0/0 (comparable) | 0/0 ((0) comparable) | 0 ((0) comparable) | − ((−) directionally inferior) | 
CC(=O)c1cc2c(cc1C)C(C)(C)C(C)CC2(C)C (centres unmarked) [Tonalid, tonalid] |  |  |  |  |  |  |  |  |  |  |  |  | ODOR STRENGTH ON BLOTTER, Rating (10-point scale) (Odor strength on blotter): 8.2; ODOR STRENGTH ON FABRIC TREATED WITH SOFTENER, Rating (10-point scale) [3]: 7.2
O=C1CCCCCCCCCCCCCCCO1 [dihydroambrettolide] | Very cloudy | Phase separation | + ((+) directionally superior) | 0 ((0) comparable) | + ((+) directionally superior) | 0 ((0) comparable) | + ((+) directionally superior) | 0 ((0) comparable) | + ((+) directionally superior) | 0 ((0) comparable) | 0 ((0) comparable) | − ((−) directionally inferior) | 
CC1CCCCCCCCCCCCC(=O)C1 (stereo not drawn) [l-muscone, muscone laevo] | Very cloudy | Phase separation |  |  |  |  |  |  |  |  |  |  | 
COc1c(C(C)(C)C)cc([N+](=O)[O-])c(C)c1[N+](=O)[O-] [musk ambrette] |  |  | − ((−) directionally inferior) | ++ | 0 (comparable) | + ((+) directionally superior) | 0 (comparable) | + ((+) directionally superior) | 0 (comparable) | + ((+) directionally superior) | ++ | − ((−) directionally inferior) | 
CC(=O)c1cc2c(cc1C)C(C)(C)C(C)CC2(C)C (centres unmarked) [tonalide/fixolide] | Very cloudy | Phase separation |  |  |  |  |  |  |  |  |  |  | 
O=C1CCC/C=C\CCCCCCCCCC1 [velvione] | Very cloudy | Phase separation | +/+ ((+) directionally superior) | +/+ ((+) directionally superior) | ++/++ | ++/++ | ++/++ | ++/++ | ++/++ | ++/++ | + ((+) directionally superior) | 0 (comparable) | 
Edenolide |  |  | −/− ((−) directionally inferior) | −/− ((−) directionally inferior) | 0/0 (comparable) | 0/0 ((0) comparable) | 0/0 (comparable) | 0/0 ((0) comparable) | 0/0 (comparable) | 0/0 ((0) comparable) | 0/0 ((0) comparable) | 0/0 (comparable) | 
Scentolide |  |  | 0 / 0 (comparable) | 0 / 0 ((0) comparable) | −/− ((−) directionally inferior) | −/− ((−) directionally inferior) | −/− ((−) directionally inferior) | −/− ((−) directionally inferior) | −/− ((−) directionally inferior) | −/− ((−) directionally inferior) | 0/0 ((0) comparable) | 0/0 (comparable) | 
